# Measurements published in patent publication US20240010681A1, “PEPTIDES AND METHODS OF USE” (REALTA LIFE SCIENCES, INC., priority 2020, published 2024).
# Tests used:
# human neutrophils = experiment: Human neutrophil adhesion to glass slides with or without fibrinogen; format: cell-based; details: increasing concentrations, 2.5 hours
# Procedure: To ascertain whether the binding of PA-dPEG24 has an effect on the ability of neutrophils to adhere to surfaces in vitro, purified human neutrophils were incubated with increasing concentrations of PA-dPEG24, washed twice with PBS, placed on the glass slides, and then incubated in a humidified 37° C. incubator in the presence of 5% C02 for 2.5 hours. Slides were subsequently stained with DAPI (1:1000 in 2% BSA) followed by imaging at 20× by fluorescence microscopy. Quantification of the amount of cell staining was performed using ImageJ analysis (NIH). […] To ascertain if adherence of neutrophils was altered on glass slides pre-coated with fibrinogen, purified human neutrophils were incubated with increasing concentrations of PA-dPEG24, washed twice with PBS, placed on the fibrinogen-coated glass slides, and then incubated in a humidified 37° C. incubator in the presence of 5% C02 for 2.5 hours. Slides were subsequently stained with DAPI (1:1000 in 2% BSA) followed by imaging at 20× by fluorescence microscopy. Quantification of the amount of cell staining was performed using ImageJ analysis (NIH).
# rat eye = experiment: Intravitreal safety study, slit lamp examination with modified MacDonald-Shadduck Ocular Grading; format: in vivo; design: key to Conjunctiva pathology score / Anterior Chamber pathology score / Iris pathology score / Cornea pathology score: 0: no pathology; 1: slight pathology; 2: moderate pathology; 3/4: severe pathology; details: for Anterior Chamber pathology score / Conjunctiva pathology score / Cornea pathology score / Iris pathology score: rats 1-4
# Procedure: Safety study. […] A saline control was administered to the left eye. For this procedure, animals were anesthetized with isoflurane and also received the topical anesthetic proparacaine. Additionally, animals received the topical antibiotic tobramycin after injection. Slit lamp examinations were performed at the indicated time points up to 72 hours post-injection and pathology graded using a modified MacDonald-Shadduck Ocular Grading system with the following scoring scale: 0, no pathology; 1, slight pathology; 2, moderate pathology; 3/4, severe pathology.
# [1] = 30 min after IVT 160 mg/ml in 5 microliters
# [2] = 2 hour after IVT 160 mg/ml in 5 microliters
# [3] = 24 hour after IVT 160 mg/ml in 5 microliters
# [4] = 48 hour after IVT 160 mg/ml in 5 microliters
# [5] = 72 hour after IVT 160 mg/ml in 5 microliters
# [6] = Pre-IVT (baseline), eye assigned to RLS-0071
structure (smiles),measurement,setting,value
CC[C@H](C)[C@H](N)C(=O)N[C@@H](C)C(=O)N[C@@H](CC(C)C)C(=O)N[C@H](C(=O)N[C@@H](CC(C)C)C(=O)N[C@@H](CCC(=O)O)C(=O)N1CCC[C@H]1C(=O)N[C@H](C(=O)N[C@@H](CS)C(=O)N[C@@H](CS)C(=O)N[C@@H](CCC(N)=O)C(=O)N[C@@H](CCC(=O)O)C(=O)N[C@@H](CCCNC(=N)N)C(=O)N[C@@H](C)C(=O)N[C@@H](C)C(=O)NCCOCCOCCOCCOCCOCCOCCOCCOCCOCCOCCOCCOCCOCCOCCOCCOCCOCCOCCOCCOCCOCCOCCOCCOCCC(=O)O)[C@@H](C)CC)[C@@H](C)CC [RLS-0071],neutrophil adherence to fibrinogen-coated glass slides,human neutrophils; fibrinogen-coated glass,dose-dependently decreased neutrophil adherence
same,number of neutrophils adhered to glass slides,human neutrophils; untreated glass,dose-dependently reduced the number of cells adhered to the slides
same,ocular toxicity by slit lamp after intravitreal injection,"rat eye; 160 mg/kg (maximal deliverable dose) as printed, all 4 animals, up to 72 hours",No RLS-0071 related toxicity was observed
same,Anterior Chamber pathology score,rat eye; [1],0
same,Conjunctiva pathology score,rat eye; [1],0
same,Cornea pathology score,rat eye; [1],0
same,Iris pathology score,rat eye; [1],0
same,Anterior Chamber pathology score,rat eye; [2],0
same,Conjunctiva pathology score,rat eye; [2],0
same,Cornea pathology score,rat eye; [2],0
same,Iris pathology score,rat eye; [2],0
same,Anterior Chamber pathology score,rat eye; [3],0
same,Conjunctiva pathology score,rat eye; [3],0
same,Cornea pathology score,rat eye; [3],0
same,Iris pathology score,rat eye; [3],0
same,Anterior Chamber pathology score,rat eye; [4],0
same,Conjunctiva pathology score,rat eye; [4],0
same,Cornea pathology score,rat eye; [4],0
same,Iris pathology score,rat eye; [4],0
same,Anterior Chamber pathology score,rat eye; [5],0
same,Conjunctiva pathology score,rat eye; [5],0
same,Cornea pathology score,rat eye; [5],0
same,Iris pathology score,rat eye; [5],0
same,Anterior Chamber pathology score,rat eye; [6],0
same,Conjunctiva pathology score,rat eye; [6],0
same,Cornea pathology score,rat eye; [6],0
same,Iris pathology score,rat eye; [6],0
